Assay results from PubChem BioAssay (NCI).
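1) Cells in 96-well plates. 2) Compound, 48 h, 5 concentrations. 3) Linear interpolation between surrounding doses. 4) Unreached endpoint = highest concentration. GI50 = concentration required for 50% inhibition of growth. TGI marks complete inhibition of growth.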

Tests used:
Assay in all cases: NCI anticancer screen, dose series, 48 h
A549 NSCLC = system: A549 NSCLC
BT-549 breast = system: BT-549 breast
CCRF-CEM leukemia = system: CCRF-CEM leukemia
MDA-MB-435 = system: MDA-MB-435
MOLT-4 leukemia = system: MOLT-4 leukemia
OVCAR-5 ovarian = system: OVCAR-5 ovarian
SF-539 CNS = system: SF-539 CNS
TK-10 renal = system: TK-10 renal
UACC-257 melanoma = system: UACC-257 melanoma
UO-31 renal = system: UO-31 renal

Row | Structure (SMILES) | GI50 (A549 NSCLC) | TGI (A549 NSCLC) | GI50 (BT-549 breast) | TGI (BT-549 breast) | GI50 (CCRF-CEM leukemia) | TGI (CCRF-CEM leukemia) | GI50 (MDA-MB-435) | TGI (MDA-MB-435) | GI50 (MOLT-4 leukemia) | TGI (MOLT-4 leukemia) | GI50 (OVCAR-5 ovarian) | TGI (OVCAR-5 ovarian) | GI50 (SF-539 CNS) | TGI (SF-539 CNS) | GI50 (TK-10 renal) | TGI (TK-10 renal) | GI50 (UACC-257 melanoma) | TGI (UACC-257 melanoma) | GI50 (UO-31 renal) | TGI (UO-31 renal)
1 | c1ccc(Nc2ncc(-c3ccccc3)o2)cc1 | > 25 µM | > 25 µM | > 25 µM | > 25 µM | > 25 µM | > 25 µM | > 25 µM | > 25 µM | > 25 µM | > 25 µM | > 25 µM | > 25 µM | > 25 µM | > 25 µM | > 25 µM | > 25 µM | > 25 µM | > 25 µM | 9.95 µM | > 25 µM
2 | CC1(C)[C@@H](NOCCCN)CC[C@]2(C)[C@H]3C(=O)C=C4[C@@H]5C[C@](C)(C(=O)O)CC[C@]5(C)CC[C@@]4(C)[C@]3(C)CC[C@@H]12 | 6.13 µM | 33.6 µM | 9.44 µM | 47.8 µM | 7.52 µM | > 100 µM | 6.08 µM | 23.6 µM | 4.63 µM | 43 µM | 14.1 µM | 28.1 µM | 11.9 µM | 24.2 µM | 16.7 µM | 36 µM | 6.81 µM | 32.3 µM | 7.44 µM | 20.4 µM
3 | CC(C)[C@@H]1NC(=O)[C@]2(C)CSC(=N2)c2ccnc(c2)CNC(=O)C[C@@H](/C=C/CCS)OC1=O | 0.0635 µM | 1.33 µM | 0.718 µM | > 100 µM | 0.574 µM | > 100 µM | 0.111 µM | 6.13 µM | 0.128 µM | > 100 µM | 0.156 µM | > 100 µM | 0.0832 µM | > 65.5 µM | 0.178 µM | 1.64 µM | 0.0376 µM | 0.526 µM | 1.56 µM | 23.1 µM
